From publication PMC2824119 (Cancer Chemotherapy and Pharmacology, 2010)

Assays:
CYP2E1 = CYP2E1 (Homo sapiens, UniProt P05181); test: CYP2E1 inhibition in human liver microsomes; assay type: in vitro ADME
CYP1A2 [1] = target: T1, CYP1A2 (Homo sapiens, UniProt P05177); conditions: azacitidine at 70 μM or lower concentrations
T1 sequence (P05177 1-516): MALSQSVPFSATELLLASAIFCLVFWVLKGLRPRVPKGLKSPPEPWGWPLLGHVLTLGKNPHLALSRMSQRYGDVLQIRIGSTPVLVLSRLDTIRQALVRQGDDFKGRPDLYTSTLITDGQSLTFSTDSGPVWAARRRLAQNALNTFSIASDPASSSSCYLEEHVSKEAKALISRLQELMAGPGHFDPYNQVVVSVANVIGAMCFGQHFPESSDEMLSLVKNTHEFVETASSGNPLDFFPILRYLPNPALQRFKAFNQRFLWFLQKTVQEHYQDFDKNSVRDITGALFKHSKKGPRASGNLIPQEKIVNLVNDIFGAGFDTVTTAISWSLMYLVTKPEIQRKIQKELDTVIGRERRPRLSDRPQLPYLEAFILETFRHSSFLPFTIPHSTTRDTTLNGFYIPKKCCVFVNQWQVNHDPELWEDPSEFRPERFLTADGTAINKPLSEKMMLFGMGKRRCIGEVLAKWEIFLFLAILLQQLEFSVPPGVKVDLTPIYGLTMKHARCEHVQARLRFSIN

CYP1A2 [2] = system: CYP1A2
CYP3A4/5 = conditions: hepatocytes

CYP2E1, sequence (P05181 whole entry): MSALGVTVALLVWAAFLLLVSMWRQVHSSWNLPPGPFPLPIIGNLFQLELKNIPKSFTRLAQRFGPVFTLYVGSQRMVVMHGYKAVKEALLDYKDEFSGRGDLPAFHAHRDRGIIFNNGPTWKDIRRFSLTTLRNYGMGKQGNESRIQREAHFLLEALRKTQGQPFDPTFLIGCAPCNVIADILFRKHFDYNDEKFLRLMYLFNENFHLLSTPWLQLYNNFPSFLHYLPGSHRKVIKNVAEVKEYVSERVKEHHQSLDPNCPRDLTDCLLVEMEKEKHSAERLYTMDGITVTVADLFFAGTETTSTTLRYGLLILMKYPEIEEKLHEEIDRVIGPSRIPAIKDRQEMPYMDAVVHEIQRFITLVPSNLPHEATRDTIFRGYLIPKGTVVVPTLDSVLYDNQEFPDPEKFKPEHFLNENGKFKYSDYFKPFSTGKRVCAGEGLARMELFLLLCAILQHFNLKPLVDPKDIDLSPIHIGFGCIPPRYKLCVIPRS

SMILES: Nc1ncn([C@@H]2O[C@H](CO)[C@@H](O)[C@H]2O)c(=O)n1 [Azacitidine]
- Inhibition of CYP2E1 (CYP2E1; azacitidine at 70 μM or lower concentrations): no inhibition
- Percent inhibition (CYP2E1; azacitidine at 100 μM, chlorzoxazone 40 μM, HLM 0.8 mg/mL): < 30%
- Inhibition of CYP1A2 (CYP1A2 [1]): no inhibition
- Decrease of CYP1A2-mediated 7-ethoxyresorufin O-dealkylation (CYP1A2 [2]; azacitidine 100 μM, not statistically significant): 29%
- Induction of CYP1A2 activity (CYP1A2 [2]; clinically relevant concentrations, once daily for three consecutive days): did not induce
- Induction of CYP3A4/5 activity (CYP3A4/5): did not induce
- Decrease of CYP3A4/5-catalyzed testosterone 6β-hydroxylation (CYP3A4/5; human): 78%
